Data published in patent US6346529B1, “Antiviral therapy using thiazine dyes” (Oklahoma Medical Research Foundation, priority 1988, dated 2002).

Legend:
Type in all cases: cell-based
HIV-1 (strain LAV-1) = test: Inhibition of HIV-1 replication in human PBMC (supernatant RT activity); details: Human immunodeficiency virus 1, PBMC; light/dark not stated; read-out: Antiviral Effect: EC50 HIV-1
Method: Cells: Human peripheral blood mononuclear cells (PBMC) from healthy HIV-1 seronegative and hepatitis B virus seronegative donors were isolated by Ficoll-Hypaque discontinuous gradient centrifugation at 1,000×g for 30 minutes, washed twice in phosphate-buffered saline (pH 7.2; PBS), and pelleted at 300×g for 10 minutes. Before infection, the cells were stimulated by phytohemagglutinin (PHA) at a concentration of 16.7 μg/ml, and 4 mM sodium bicarbonate buffer.
Retrovirus: HIV-1 (strain LAV-1) was obtained from Dr. P. Feorino (Centers for Disease Control, Atlanta, Ga.). The virus was propagated in human PBMC using RPMI 1640 medium, as described previously by McDougal, et al., (“Immunoassay for the detection and quantitation of infectious human retrovirus, lymphadenopathy-associated virus (LAV),” J. Immun. Meth. 76, 171-183, 1985) without PBA or fungizone and supplemented with 7% (v/v) interleukin-2 (Advanced Biotechnologies, Silver Spring, Md.), 7 μg/ml DEAE-dextran (Pharmacia, Uppsala, Sweden), and 370 U/ml anti-human leukocyte (alpha) interferon (ICN, Lisle, Ill.). Virus obtained from cell-free culture supernatant was titrated and stored in aliquots at −70° C. until use.
Inhibition of Virus Replication in Human PBMC: Uninfected PHA-stimulated human PBMC were uniformly distributed among 25 cm^2 flasks to give a 5 ml suspension containing about 2×10^6 cells/ml. Suitable dilutions of virus were added to infect the cultures. The mean reverse transcriptase (RT) activity of the inocula was 50,000 dpm/ml corresponding to about 100 TCID50, as determined by Groopman, et al., (1987), “Characterization of Serum Neutralization Response to the Human Immunodeficiency Virus (HIV),” AIDS Res. Human Retro. 3, 71-85. The drugs, at twice their final concentrations in 5 ml of RPMI 1640 medium (supplemented as described above), were added to the cultures. Uninfected and untreated PBMC at equivalent cell densities were grown in parallel as controls. The cultures were maintained in a humidified 5% CO2-95% air incubator at 37° C. for six days after infection at which point all cultures were sampled for supernatant RT activity.
RT Activity Assay: A […] aliquot of supernatant from each culture was clarified of cells at 300×g for 10 minutes. […]
The RT assay was performed in 96-well microtiter plates, as described by Spira, et al. (1987), “Micromethod for Assaying the Reverse Transcriptase of LAV-HTLV-III/Lymphadenopathy-Associated Virus,” J. Clin. Microbiol. […] Four ml of scintillation fluid (Econofluor, NEN Research Products, Boston, Mass.) were added and the amount of radioactivity in each sample was determined using a Packard Tri-Carb liquid scintillation analyzer (model 2,000CA). […]

HSV-1 (F strain) = test: HSV plaque reduction assay in Vero cells, HSV-1; details: Human alphaherpesvirus 1, Vero, light/dark not stated; read-out: Antiviral Effect: EC50 HSV-1
Method: (§1) HSV Preparation: Confluent HEp-2 cells, in a roller bottle (Falcon, 850 cm^2), were infected at an input multiplicity of 0.01 PFU per cell (to minimize production of defective viruses). During the two-hour absorption period, the cells were exposed to the virus inoculum diluted in absorption buffer (10 ml PBS containing 1% newborn calf serum and 0.1% glucose). The virus inoculum was then removed and replaced with Hanks' Minimum Essential Medium (MEM) containing 2% inactivated newborn calf serum, penicillin (100 U/ml) and streptomycin (100 μg/ml) (P and S), sodium bicarbonate (2 g/L) and HEPES (25 mM) (maintenance medium). The infected cells were incubated at 37° C. for 3 to 4 days, until the cells could be easily shaken from the plastic surface of the culture bottles. The cells were then collected by centrifugation, suspended in a small volume of spent culture fluid (5 ml per 2×10^8 cells) and sonicated 3 times for one min on ice. The disrupted cells were centrifuged (2,000 g for 15 min at 4° C. and the supernatant was diluted with an equal volume of sterile skimmed milk (as stabilizer) and aliquots were frozen at −70° C.
(§2) HSV Plaque Reduction Assay: Near confluent Vero (African Green Monkey) cells in 6-well plates were infected with 100 μl virus diluted in absorption buffer to give 100-200 plaques per well. The plates were then incubated at 37° C. for 1 hour with intermittent rocking every 15 minutes. The inoculum was aspirated and the compounds at different concentrations (dissolved in maintenance medium) were added to replicate wells. For these assays, 0.1% pooled human gamma globulin was included in the media. The plates were placed in 5% CO2-95% air incubator and the plaques were allowed to develop for 48 h prior to fixation (buffered 10% Formalin acetate), staining (0.5% crystal violet in 20% EtOH/H2O) and enumeration. The degree of inhibition (percent plaques of control) was calculated by counting the mean plaque counts for the different drug dilutions. […] For routine antiviral drug screening, we used the F strain of HSV-1 and the G strain of HSV-2 (Ejercito, et al., “Characterization of Herpes Simplex virus Strains Differing in Their Effect on Social Behavior of Infected Cells,” J. Gen. Virol. 2, 357-364 (1968)). […] Acyclovir (ACV) was used as a positive control for the studies on HSV.
(§3) Median-Effect Method: EC50 and IC50 values were obtained by analysis of the data using the median-effect equation (Chou, T., et al., “Quantitative Analysis of Dose-Effect Relationships: The Combined Effects of Multiple Drugs or Enzyme Inhibitors,” Adv. Enz. Regul. 22, 27-55 (1984).

HSV-2 (G strain) = test: HSV plaque reduction assay in Vero cells, HSV-2; details: Human alphaherpesvirus 2, Vero, light/dark not stated; read-out: Antiviral Effect: EC50 HSV-2
Method: as §1, §2, §3

HIV (LAV-I) = test: HIV in human PBMC, P24 levels by EIA
Method: While the previous example measured RT activity, the present example utilizes a direct quantitation of a viral protein (P24) as an indicator of antiviral effectiveness.
Peripheral blood mononuclear (PBM) cells were infected with HIV and treated with methylene blue as described above. The EC50 levels were calculated from enzyme immuno-assay (EIA) measurements of viral coat protein P24. The P24-specific EIA kit was purchased from Abbott Labs.

EC50 (HIV-1 (strain LAV-1)): 0.22 nM | EC50 (HSV-1 (F strain)): > 100000 nM | EC50 (HSV-2 (G strain)): > 100000 nM | EC50 (HIV (LAV-I); Human immunodeficiency virus 1, PBMC, light/dark not stated, read-out: EC50 (P24)): 6.4 nM
SMILES: Cc1cn([C@H]2C[C@H](N=[N+]=[N-])[C@@H](CO)O2)c(=O)[nH]c1=O [AZT, 3′-azido-3′-deoxythymidine]
ng P24/ml (HIV (LAV-I); 0.0001 μM): 360.7 ng P24/ml | ng P24/ml (HIV (LAV-I); 0.001 μM): 266.2 ng P24/ml | ng P24/ml (HIV (LAV-I); 0.01 μM): 36.1 ng P24/ml | ng P24/ml (HIV (LAV-I); 0.1 μM): 5.2 ng P24/ml | inhibition at 0.0001 µM (HIV (LAV-I); Human immunodeficiency virus 1, PBMC, 0.0001 μM, read-out: % Inhibition (corrected)): -0.5% | inhibition at 0.001 µM (HIV (LAV-I); Human immunodeficiency virus 1, PBMC, 0.001 μM, read-out: % Inhibition (corrected)): 25.8% | inhibition at 0.01 µM (HIV (LAV-I); Human immunodeficiency virus 1, PBMC, 0.01 μM, read-out: % Inhibition (corrected)): 89.9% | inhibition at 0.1 µM (HIV (LAV-I); Human immunodeficiency virus 1, PBMC, 0.1 μM, read-out: % Inhibition (corrected)): 98.5%
